In US8178523B2, “Compounds for the treatment of hepatitis C” (Bristol-Myers Squibb Company, priority 2008, dated 2012):
pEC50, pIC50: −log10 of the molar value.

Assays:
HCV replicon cells = assay: HCV replicon FRET / luciferase assay; assay type: cell-based; conditions: Hepatitis C virus, 50% reduction in FRET or luciferase activity
Method: FRET Assay Preparation. The HCV FRET screening assay was performed in 96-well cell culture plates. The FRET peptide (Anaspec, Inc.) (Taliani et al., Anal. Biochem. 1996, 240, 60-67) contains a fluorescence donor, EDANS, near one end of the peptide and an acceptor, DABCYL, near the other end. The fluorescence of the peptide is quenched by […] resonance energy transfer (RET) between the donor and the acceptor, but as the NS3 protease cleaves the peptide the products are released from RET quenching and the fluorescence of the donor becomes apparent. The assay reagent was made as follows: 5× cell Luciferase cell culture lysis reagent from Promega (#E153A) diluted to 1× with dH2O, NaCl added to 150 mM final, the FRET peptide diluted to 20 μM final from a 2 mM stock.
To prepare plates, HCV replicon cells, with or without a Renilla luciferase reporter gene, were trypsinized and plated in a 96-well plate with titrated test compounds added in columns 3 through 12; columns 1 and 2 contained a control compound (HCV control inhibitor), and the bottom row contained cells with DMSO only. The plates were then placed in a CO2 incubator at 37° C.
Assays. Subsequent to addition of the test compounds described above (FRET Assay Preparation), at various times the plate was removed and Alamar blue solution (Trek Diagnostics, #00-100) was added to measure cellular toxicity. After reading in a Cytoflour 4000 instrument (PE Biosystems), plates were rinsed with PBS and then used for FRET assay by the addition of 30 ul of the FRET peptide assay reagent described above (FRET Assay Preparation) per well. The plate was then placed into the Cytoflour 4000 instrument which had been set to 340 excite/490 emission, automatic mode for up to 20 cycles and the plate read in a kinetic mode. Typically, the signal to noise using an endpoint analysis after the reads was at least three-fold. Alternatively, after Alamar blue reading, plates were rinsed with PBS, then used for luciferase assay using the Promega Dual-Glo Luciferase Assay System or the Promega EnduRen Live Cell Substrate assay.
Compound analysis was performed by quantification of the relative HCV replicon inhibition and the relative cytotoxicity values. To calculate cytoxicity values, the average Alamar Blue fluorescence signals from the control wells were set as 100% non-toxic. The individual signals in each of the compound test wells were then divided by the average control signal and multiplied by 100% to determine […]. To calculate the HCV replicon inhibition values, an average background value was obtained from the two wells containing the highest amount of HCV control inhibitor at the end of the assay period. These numbers were similar to those obtained from naïve Huh-7 cells. The background numbers were then subtracted from the average signal obtained from the control wells and this number was used as 100% activity. The individual signals in each of the compound test wells were then divided by the averaged control values after background subtraction and multiplied by 100% to determine percent activity. EC50 values were calculated as the concentration which caused a 50% reduction in FRET or luciferase activity. The two numbers generated for the compound plate, percent cytoxicity and percent activity, were used to determine compounds of interest for further analysis.

HCV NS5B RdRp = target: T1, HCV NS5B RdRp (Hepatitis C virus genotype 1b, UniProt Q9WMX2); assay: HCV NS5B RdRp enzyme assay; assay type: biochemical; conditions: HCV NS5B genotype 1b, standard or modified RdRp assay not given
T1 construct: The protein was expressed with an 18 amino acid C-terminal truncation to enhance the solubility; made in house; host or cells: E. coli BL21(DE3)
Method: HCV NS5B RdRp cloning, expression, and purification. The cDNA encoding the NS5B protein of HCV, genotype 1b, was cloned into the pET21a expression vector. The protein was expressed with an 18 amino acid C-terminal truncation to enhance the solubility. The E. coli competent cell line BL21(DE3) was used for expression of the protein. Cultures were grown at 37° C. for ˜4 hours until the cultures reached an optical density of 2.0 at 600 nm. The cultures were cooled to 20° C. and induced with 1 mM […]. Fresh ampicillin was added to a final concentration of 50 μg/ml and the cells were grown overnight at 20° C.
Cell pellets (3 L) were lysed for purification to yield 15-24 mgs of purified NS5B. The lysis buffer consisted of 20 mM Tris-HCl, pH 7.4, 500 mM NaCl, 0.5% triton X-100, 1 mM DTT, 1 mM EDTA, 20% glycerol, 0.5 mg/ml lysozyme, 10 mM MgCl2, 15 ug/ml deoxyribonuclease I, and Complete TM protease inhibitor tablets (Roche). After addition of the lysis buffer, frozen cell pellets were resuspended using a tissue homogenizer. To reduce the viscosity of the sample, aliquots of the lysate were sonicated on ice using a microtip attached to a Branson sonicator. The sonicated lysate was centrifuged at 100,000×g for 1 hr at 4° C. and filtered through a 0.2 μm filter unit (Corning).
The protein was purified using two sequential chromatography steps: Heparin sepharose CL-6B and polyU sepharose 4B (Pharmacia). The chromatography buffers were identical to the lysis buffer but contained no lysozyme, deoxyribonuclease I, MgCl2 or protease inhibitor and the NaCl concentration of the buffer was adjusted according to the requirements for charging the protein onto the column. Each column was eluted with a NaCl gradient which varied in length from 5-50 column volumes depending on the column type. After the final chromatography step, the resulting purity of the enzyme is >90% based on SDS-PAGE analysis. The enzyme was aliquoted and stored at −80° C.
Standard HCV NS5B RdRp enzyme assay. HCV RdRp genotype 1b assays were run in a final volume of 60 μl in 96 well plates (Corning 3600). The assay buffer is composed of 20 mM Hepes, pH 7.5, 2.5 mM KCl, 2.5 mM MgCl2, 1 mM DTT, 1.6 U RNAse inhibitor (Promega N2515), 0.01 mg/ml BSA (Sigma B6917), and 2% glycerol. All compounds were serially diluted (3-fold) in DMSO and diluted further in water such that the final concentration of DMSO in the assay was 2%. HCV RdRp genotype 1b enzyme was used at a final concentration of 28 nM. A polyA template was used at 6 nM, and a biotinylated oligo-dT12 primer was used at 180 nM final concentration. Template was obtained commercially (Amersham 27-4110). Biotinylated primer was prepared by Sigma Genosys. 3H-UTP was used at (0.29 μM total UTP). Reactions were initiated by the addition of enzyme, incubated at 30° C. for 60 min, and stopped by adding 25 μl of 50 mM EDTA containing SPA beads (4 μg/μl, Amersham RPNQ 0007). Plates were read on a Packard Top Count NXT after >1 hr incubation at room temperature.
Modified HCV NS5B RdRp enzyme assay. A modified enzyme assay was performed essentially as described for the standard enzyme assay except for the following: The biotinylated oligo dT12 primer was precaptured on streptavidin-coated SPA beads by mixing primer and beads in assay buffer and incubating at room temperature for one hour. Unbound primer was removed after centrifugation. The primer-bound beads were resuspended in 20 mM Hepes buffer, pH 7.5 and used in the assay at final concentrations of 20 nM primer and […] beads. Order of addition in the assay: enzyme (1.75 nM) was added to diluted compound followed by the addition of a mixture of template (0.36 nM), 3H-UTP (0.6 μCi, 0.29 μM), and primer-bound beads, to initiate the reaction; concentrations given are final. Reactions were allowed to proceed for 4 hours at 30° C.
IC50 values for compounds were determined using seven different [I]. […]

T1 sequence (Q9WMX2 2420-2992): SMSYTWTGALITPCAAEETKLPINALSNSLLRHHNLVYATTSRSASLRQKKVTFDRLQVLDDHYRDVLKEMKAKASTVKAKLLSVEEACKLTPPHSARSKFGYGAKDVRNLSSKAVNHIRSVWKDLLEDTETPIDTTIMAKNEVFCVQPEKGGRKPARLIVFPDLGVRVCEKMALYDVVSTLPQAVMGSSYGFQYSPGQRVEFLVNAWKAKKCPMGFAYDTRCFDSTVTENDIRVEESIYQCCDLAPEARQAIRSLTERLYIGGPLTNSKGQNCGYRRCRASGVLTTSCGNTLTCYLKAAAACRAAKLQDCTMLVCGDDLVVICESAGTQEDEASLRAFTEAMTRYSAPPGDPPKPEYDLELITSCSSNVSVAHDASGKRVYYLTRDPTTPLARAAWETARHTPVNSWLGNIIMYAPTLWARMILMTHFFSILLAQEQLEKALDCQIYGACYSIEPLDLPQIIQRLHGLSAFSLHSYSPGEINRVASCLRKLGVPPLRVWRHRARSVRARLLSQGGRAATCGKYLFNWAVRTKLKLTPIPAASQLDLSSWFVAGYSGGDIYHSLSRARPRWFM

Compound	pEC50 (HCV replicon cells; class symbols)	pIC50 (HCV NS5B RdRp; class symbols)	pEC50 (HCV replicon cells; numeric values)	pIC50 (HCV NS5B RdRp; numeric values)
COc1ccc2c(c1)C1CC1(C(=O)N1CCC(c3c[nH]c4ccccc34)CC1)Cn1c-2c(C2CCCCC2)c2ccc(C(=O)NS(=O)(=O)C(C)C)cc21 (stereo not shown)	6.30 to 8.70	6.30 to 8.70	–	–
CCOC(=O)c1coc(C2CCN(C(=O)C34CC3c3cc(OC)ccc3-c3c(C5CCCCC5)c5ccc(C(=O)NS(=O)(=O)N(C)C)cc5n3C4)CC2)n1 (stereo not shown)	6.30 to 8.70	6.30 to 8.70	–	–
COc1ccc2c(c1)C1CC1(C(=O)N1CCC(n3cc(-c4ccccc4Cl)cn3)CC1)Cn1c-2c(C2CCCCC2)c2ccc(C(=O)NS(=O)(=O)N(C)C)cc21 (stereo not shown)	6.30 to 8.70	6.30 to 8.70	–	–
COc1ccc2c(c1)C1CC1(C(=O)N1CCC(c3noc4cc(F)ccc34)CC1)Cn1c-2c(C2CCCCC2)c2ccc(C(=O)N[S+]([O-])N(C)C)cc21 (stereo not shown)	6.30 to 8.70	6.30 to 8.70	–	–
COc1ccc2c(c1)C1CC1(C(=O)N1CCC(c3nncn3C)CC1)Cn1c-2c(C2CCCCC2)c2ccc(C(=O)NS(=O)(=O)N(C)C)cc21 (stereo not shown)	6.30 to 8.70	6.30 to 8.70	–	–
COc1ccc2c(c1)C=C(C(=O)N1CCC(c3nc(C)no3)CC1)Cn1c-2c(C2CCCCC2)c2ccc(C(=O)NS(=O)(=O)N(C)C)cc21	–	–	6.64	7.05
COc1ccc2c(c1)C=C(C(=O)N1CCCCC1c1nccs1)Cn1c-2c(C2CCCCC2)c2ccc(C(=O)NS(=O)(=O)N(C)C)cc21 (stereo not shown)	–	–	6.34	7.00
COc1ccc2c(c1)C1CC1(C(=O)N1CCC(n3cc(-c4ccc(Cl)cc4)cn3)CC1)Cn1c-2c(C2CCCCC2)c2ccc(C(=O)NS(=O)(=O)N(C)C)cc21 (stereo not shown)	6.30 to 8.70	6.30 to 8.70	–	–
COc1ccc2c(c1)C1CC1(C(=O)N1CCC(c3nnc(-c4ccccc4)o3)CC1)Cn1c-2c(C2CCCCC2)c2ccc(C(=O)NS(=O)(=O)N(C)C)cc21 (stereo not shown)	6.30 to 8.70	6.30 to 8.70	–	–
COc1ccc2c(c1)C1CC1(C(=O)N1CCC(c3nnc(C)o3)CC1)Cn1c-2c(C2CCCCC2)c2ccc(C(=O)NS(=O)(=O)N(C)C)cc21 (stereo not shown)	–	–	7.30	7.70
COc1ccc2c(c1)C1CC1(C(=O)N1CCCCC1c1nccs1)Cn1c-2c(C2CCCCC2)c2ccc(C(=O)NS(=O)(=O)N(C)C)cc21 (stereo not shown)	–	–	6.54	7.15
COc1ccc2c(c1)C1CC1(C(=O)N1CCC(n3cc(-c4ccccc4)cn3)CC1)Cn1c-2c(C2CCCCC2)c2ccc(C(=O)NS(=O)(=O)N(C)C)cc21 (stereo not shown)	6.30 to 8.70	6.30 to 8.70	–	–
COc1ccc2c(c1)C1CC1(C(=O)N1CCC(c3nnc(C(C)C)o3)CC1)Cn1c-2c(C2CCCCC2)c2ccc(C(=O)NS(=O)(=O)C(C)C)cc21 (stereo not shown)	6.30 to 8.70	6.30 to 8.70	–	–
COc1ccc(-c2cnn(C3CCN(C(=O)C45CC4c4cc(OC)ccc4-c4c(C6CCCCC6)c6ccc(C(=O)NS(=O)(=O)N(C)C)cc6n4C5)CC3)c2)cc1 (stereo not shown)	6.30 to 8.70	6.30 to 8.70	–	–
COc1ccc2c(c1)[C@@H]1C[C@]1(C(=O)N1CCC(c3nnc(C)o3)CC1)Cn1c-2c(C2CCCCC2)c2ccc(C(=O)NS(=O)(=O)N(C)C)cc21	–	–	7.52	7.52
CCCc1noc(C2CCN(C(=O)C34CC3c3cc(OC)ccc3-c3c(C5CCCCC5)c5ccc(C(=O)NS(=O)(=O)N(C)C)cc5n3C4)CC2)n1 (stereo not shown)	6.30 to 8.70	6.30 to 8.70	–	–
COc1ccc2c(c1)C1CC1(C(=O)N1CCC(n3c(C)nnc3C)CC1)Cn1c-2c(C2CCCCC2)c2ccc(C(=O)NS(=O)(=O)N(C)C)cc21 (stereo not shown)	6.30 to 8.70	6.30 to 8.70	–	–
CCc1nnc(C2CCN(C(=O)C34CC3c3cc(OC)ccc3-c3c(C5CCCCC5)c5ccc(C(=O)NS(=O)(=O)C(C)C)cc5n3C4)CC2)o1 (stereo not shown)	6.30 to 8.70	6.30 to 8.70	–	–
COc1ccc2c(c1)C1CC1(C(=O)N1CCC(c3cc4ccccc4o3)CC1)Cn1c-2c(C2CCCCC2)c2ccc(C(=O)NS(=O)(=O)C(C)C)cc21 (stereo not shown)	< 6.30	6.30 to 8.70	–	–
COc1ccc2c(c1)C1CC1(C(=O)N1CCC(c3nc4ccccc4o3)CC1)Cn1c-2c(C2CCCCC2)c2ccc(C(=O)NS(=O)(=O)N(C)C)cc21 (stereo not shown)	6.30 to 8.70	6.30 to 8.70	–	–
COc1ccc2c(c1)C1CC1(C(=O)N1CCC(c3nc4cc(C)ccc4[nH]3)CC1)Cn1c-2c(C2CCCCC2)c2ccc(C(=O)NS(=O)(=O)N(C)C)cc21 (stereo not shown)	6.30 to 8.70	6.30 to 8.70	–	–
COc1ccc2c(c1)C1CC1(C(=O)N1CCC(c3nnc(C)o3)CC1)Cn1c-2c(C2CCCCC2)c2ccc(C(=O)NS(=O)(=O)C(C)C)cc21 (stereo not shown)	–	–	6.96	7.15
COc1ccc2c(c1)C=C(C(=O)N1CCC(c3nncn3C)CC1)Cn1c-2c(C2CCCCC2)c2ccc(C(=O)NS(=O)(=O)N(C)C)cc21	6.30 to 8.70	6.30 to 8.70	–	–
COc1ccc2c(c1)C=C(C(=O)N1CCCCC1c1nc(C(C)C)no1)Cn1c-2c(C2CCCCC2)c2ccc(C(=O)NS(=O)(=O)N(C)C)cc21 (stereo not shown)	–	–	6.00	6.82
COc1ccc2c(c1)C1CC1(C(=O)N1CCC(c3cc(-c4ccco4)n[nH]3)CC1)Cn1c-2c(C2CCCCC2)c2ccc(C(=O)NS(=O)(=O)N(C)C)cc21 (stereo not shown)	6.30 to 8.70	6.30 to 8.70	–	–
COc1ccc2c(c1)C1CC1(C(=O)N1CCC(c3nnc(N)s3)CC1)Cn1c-2c(C2CCCCC2)c2ccc(C(=O)NS(=O)(=O)N(C)C)cc21 (stereo not shown)	–	–	6.72	7.22
